This note sets out measurements from PubChem BioAssay AID652211 (Johns Hopkins Ion Channel Center, 2013).

Active and inactive are the calls of the source.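 Rule for the calls: active = lowers flux through the TASK3 potassium channel at some tested dose, with a dose response curve; inactive = no inhibition at any dose or no dose response.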

Potassium channel subfamily K member 9 (Homo sapiens), sequence (Q9NPC2 whole entry, looked up): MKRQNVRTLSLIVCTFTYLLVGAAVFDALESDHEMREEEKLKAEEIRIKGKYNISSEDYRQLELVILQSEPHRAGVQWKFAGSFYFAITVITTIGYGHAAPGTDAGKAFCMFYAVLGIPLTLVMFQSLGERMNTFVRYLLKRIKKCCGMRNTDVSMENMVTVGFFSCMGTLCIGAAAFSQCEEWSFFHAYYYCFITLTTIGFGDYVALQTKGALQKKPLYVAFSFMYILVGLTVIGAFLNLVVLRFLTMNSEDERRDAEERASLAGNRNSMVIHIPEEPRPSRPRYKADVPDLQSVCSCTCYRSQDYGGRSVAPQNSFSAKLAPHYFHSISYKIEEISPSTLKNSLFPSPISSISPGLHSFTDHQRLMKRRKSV

The first assay addresses Potassium channel subfamily K member 9 (Homo sapiens) (UniProt Q9NPC2). As to the kind of experiment: KCNK9 flux blockade, concentration-response – cell-based, FluxOR thallium flux, selectivity assay for TASK1 inhibitor project, SAR follow-up (AID 652211). The conditions noted are these: KCNK9-expressing cells, FluxOR thallium flux fluorescence.
As to `Cc1cccc(C(=O)Nc2cccc(NC(=O)c3cccc(F)c3)c2)c1`, the IC50 was 0.6 µM.
Turning to `CC(C)c1ccccc1C(=O)Nc1cccc(NC(=O)c2ccccc2OC(F)(F)F)c1`, the IC50 was 0.73 µM.

Still in this assay, the particulars now being: KCNK9-expressing cells, FluxOR thallium flux fluorescence; at 30 µM (top of the series).
As for `O=C(Nc1cccc(NC(=O)c2ccc(Cl)cc2)c1)c1ccccc1`, the “thallium flux ratio, lower = inhibition” value is “inactive”.
Same read-out and setting: to `Cc1cccc(NC(=O)c2ccccc2NC(=O)c2ccccc2)c1` belongs “inactive”; to `CN(C)c1ccc(C(=O)Nc2cccc(NC(=O)c3ccccc3)c2)cc1`, “inactive”.
Take `CCOc1ccccc1NC(=O)c1cccc(NC(=O)c2ccc(C(F)(F)F)cc2)c1`: the “thallium flux ratio, lower = inhibition” value was “inactive”.
For the compound `Cc1cccc(C(=O)Nc2cccc(NC(=O)c3ccc(C(C)(C)C)cc3)c2)c1`, the “thallium flux ratio, lower = inhibition” value was “inactive”.
As for `CCOc1ccccc1NC(=O)c1cccc(NC(=O)C2CCCO2)c1` (centres undefined), the “thallium flux ratio, lower = inhibition” value is “inactive”.
As to `CCOc1ccc(NC(=O)c2cccc(NC(=O)C3CCCC3)c2)cc1`, the “thallium flux ratio, lower = inhibition” value is “inactive”.
Regarding `O=C(Nc1cccc(NC(=O)c2cccnc2)c1)c1ccccc1`, the “thallium flux ratio, lower = inhibition” value was “inactive”.
Regarding `Cc1cccc(NC(=O)c2cccc(NC(=O)c3ccccc3)c2)c1`, the “thallium flux ratio, lower = inhibition” value is “inactive”.
Turning to `Cc1cccc(C(=O)Nc2cccc(NC(=O)c3ccc(Cl)cc3)c2)c1`, the “thallium flux ratio, lower = inhibition” value is “inactive”.
As for `O=C(Nc1cccc(NC(=O)c2ccoc2)c1)c1ccccc1`, the “thallium flux ratio, lower = inhibition” value is “inactive”.
Same read-out and setting: under `COc1ccc(C(=O)Nc2cccc(NC(=O)c3cccc(C)c3)c2)cc1` stands “inactive”; under `CCOc1ccccc1NC(=O)c1cccc(NC(=O)C2CCOC2)c1` (centres undefined), “inactive”; under `Cc1ccc(C(=O)Nc2cccc(NC(=O)c3ccccc3)c2)cc1`, “inactive”.
For the compound `O=C(Nc1cccc(NC(=O)c2cccc(Cl)c2)c1)c1ccccc1`, the “thallium flux ratio, lower = inhibition” value is “inactive”.
For the compound `CCOc1ccccc1NC(=O)c1cccc(NC(=O)c2ccc(Cl)cc2)c1`, the “thallium flux ratio, lower = inhibition” value is “inactive”.
As for `COc1ccc(C(=O)Nc2cccc(NC(=O)c3ccccc3)c2)cc1`, the “thallium flux ratio, lower = inhibition” value was “inactive”.
The same measure, in the same setting: under `O=C(Nc1cccc(NC(=O)c2cccs2)c1)c1ccccc1` stands “inactive”; under `O=C(Nc1cccc(NC(=O)c2ccncc2)c1)c1ccccc1`, “inactive”; under `Cc1cccc(C(=O)Nc2cccc(NC(=O)c3ccc(N(C)C)cc3)c2)c1`, “inactive”.
The same measure, in the same setting: under `CC(C)(C)c1ccc(C(=O)Nc2cccc(NC(=O)c3ccccc3)c2)cc1` stands “inactive”.
The same measure, in the same setting: under `Cc1cccc(C(=O)Nc2ccccc2C(=O)Nc2ccccc2)c1` stands “inactive”; under `O=C(Nc1cccc(NC(=O)c2ccsc2)c1)c1ccccc1`, “inactive”.
Take `CCOc1ccccc1NC(=O)c1cccc(NC(=O)c2ccc(OC)cc2)c1`: the “thallium flux ratio, lower = inhibition” value was “inactive”.
For `COc1ccccc1C(=O)Nc1cc(NC(=O)c2ccccc2C(C)C)ccc1F`, the “thallium flux ratio, lower = inhibition” value is “inactive”.
The same measure, in the same setting: to `Cc1cccc(S(=O)(=O)Nc2cccc(NC(=O)c3ccccc3)c2)c1` belongs “inactive”.
With `Cc1cccc(C(=O)Nc2cccc(NC(=O)c3ccc(C(F)(F)F)cc3)c2)c1`, the “thallium flux ratio, lower = inhibition” value is “inactive”.
Take `Cc1cccc(C(=O)Nc2ccccc2NC(=O)c2ccccc2)c1`: the “thallium flux ratio, lower = inhibition” value is “inactive”.
As to `Cc1cccc(C(=O)Nc2cccc(C(=O)Nc3ccccc3)c2)c1`, the “thallium flux ratio, lower = inhibition” value was “inactive”.
Consider `O=C(Nc1cccc(NC(=O)c2ccco2)c1)c1ccccc1`, for which the “thallium flux ratio, lower = inhibition” value was “inactive”.
On to `O=C(Nc1cccc(NC(=O)c2cccc(F)c2)c1)c1ccccc1`, for which the “thallium flux ratio, lower = inhibition” value is “inactive”.
Consider `CCOc1ccccc1NC(=O)c1cccc(C(=O)NC2CCCC2)c1`, for which the “thallium flux ratio, lower = inhibition” value was “inactive”.
Turning to `O=C(Nc1cccc(NC(=O)c2ccc(F)cc2)c1)c1ccccc1`, the “thallium flux ratio, lower = inhibition” value is “inactive”.
Regarding `O=C(Nc1cccc(NC(=O)c2cccc(C(F)(F)F)c2)c1)c1ccccc1`, the “thallium flux ratio, lower = inhibition” value was “inactive”.
The same measure, in the same setting: to `O=C(Nc1cccc(NC(=O)c2ccccc2)c1)c1ccccc1` belongs “inactive”; to `Cc1cccc(C(=O)Nc2cccc(NC(=O)c3ccncc3)c2)c1`, “inactive”; to `O=C(Nc1cccc(NC(=O)c2ccc(C(F)(F)F)cc2)c1)c1ccccc1`, “inactive”.

For orientation: IC50 means the concentration that inhibits the measured activity by half.
